The target of one test is hP2Y12R (Homo sapiens, UniProt Q9H244). Description: radioligand displacement of [3H]AZ12464237. It counts as binding. On the technique in general: Displacement assays read how much labelled ligand stays bound in the presence of the test substance.
The target of test [1] is T1, rP2Y12R (Rattus norvegicus, UniProt Q9EPX4). Description: radioligand displacement of [3H]AZ12464237. It counts as binding.
The target in test [2] is T1, rP2Y12R. Description: radioligand saturation binding, HEK […] membranes.

Structures are written as SMILES. Structures can show the parent of a compound that is named as a salt.

Chain of hP2Y12R (Q9H244 whole entry): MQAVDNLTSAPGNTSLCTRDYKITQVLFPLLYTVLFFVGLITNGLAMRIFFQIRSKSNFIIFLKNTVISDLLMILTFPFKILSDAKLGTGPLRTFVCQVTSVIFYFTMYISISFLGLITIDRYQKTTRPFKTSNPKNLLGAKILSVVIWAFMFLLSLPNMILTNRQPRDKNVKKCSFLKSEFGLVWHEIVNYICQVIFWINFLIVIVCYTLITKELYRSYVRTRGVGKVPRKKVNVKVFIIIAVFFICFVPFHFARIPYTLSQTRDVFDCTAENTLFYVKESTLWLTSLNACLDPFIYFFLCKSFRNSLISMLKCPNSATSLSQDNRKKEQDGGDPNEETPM
T1 sequence (Q9EPX4 whole entry): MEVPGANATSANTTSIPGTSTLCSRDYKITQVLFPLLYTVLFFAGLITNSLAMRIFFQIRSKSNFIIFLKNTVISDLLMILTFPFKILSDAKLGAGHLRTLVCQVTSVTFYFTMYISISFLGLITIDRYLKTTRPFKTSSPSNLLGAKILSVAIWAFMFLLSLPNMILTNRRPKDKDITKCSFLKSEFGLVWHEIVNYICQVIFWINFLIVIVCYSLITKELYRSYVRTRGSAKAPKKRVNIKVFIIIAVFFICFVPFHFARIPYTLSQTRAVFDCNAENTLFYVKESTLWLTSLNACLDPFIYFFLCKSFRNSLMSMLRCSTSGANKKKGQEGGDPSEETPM

By Ki is commonly meant the dissociation constant of the complex between target and ligand, obtained from inhibition or displacement. A higher Ki goes with weaker binding. Turning to `CCCSc1nc(N[C@@H]2C[C@H]2c2ccc(F)c(F)c2)c2nnn([C@@H]3C[C@H](OCCO)[C@@H](O)[C@H]3O)c2n1` [ticagrelor], the values for the Ki on hP2Y12R and at rP2Y12R [1] were 20.1 ± 0.25 nM and 48.8 ± 15.2 nM, respectively.
Broadly, the Kd is the equilibrium constant for the complex coming apart. `CCOC(=O)c1cc(C#N)c(N2CC(NC(=O)NS(=O)(=O)c3ccc(Cl)s3)C2)nc1C` [AZ12464237, Ethyl 6-(3-(3-((5-chlorothiophen-2-yl)sulfonyl)ureido)azetidin-1-yl)-5-cyano-2-methylnicotinate]: binding at rP2Y12R [2] was put at a Kd of 16.6 ± 3.37 nM.
On to `Nc1c(S(=O)(=O)O)cc(Nc2ccc(Nc3ccccc3)c(S(=O)(=O)O)c2)c2c1C(=O)c1ccccc1C2=O` [PSB0739], for which the Ki on hP2Y12R worked out at 25.6 ± 3.05 nM.
Still for that read-out and setting: under `O=C(O)c1cc(-c2ccc(C3CCNCC3)cc2)c2ccc(-c3ccc(C(F)(F)F)cc3)cc2c1` [PPTN·HCl, 4-[4-(4-piperidinyl)phenyl]-7-[4-(trifluoromethyl)phenyl]-2-naphthalenecarboxylic acid hydrochloride] stands over 10000 nM.
Consider `CNc1cc2[nH]c(=O)n(-c3ccc(NC(=O)NS(=O)(=O)c4ccc(Cl)s4)cc3)c(=O)c2cc1F` [elinogrel, 5-chloro-N-[[[4-[6-Fluoro-1,4-dihydro-7-(methylamino)-2,4-dioxo-3(2H)-quinazolinyl]phenyl]amino]carbonyl]-2-thiophenesulfonamide], for which the Ki at hP2Y12R was 7 ± 0.54 nM; on rP2Y12R [1] it was 55 ± 14.3 nM.
In turn, `CSc1nc(N)c2ncn([C@@H]3O[C@H](COP(=O)(O)OP(=O)(O)O)[C@@H](O)[C@H]3O)c2n1` [2MeSADP, 2-methylthio-adenosine-5’-diphosphate] had a Ki on hP2Y12R of 18.9 ± 2.61 nM.
On the same count and under the same terms, then `Cc1nc(N=Nc2cc([N+](=O)[O-])ccc2Cl)c(COP(=O)(O)O)c(C=O)c1O` [MRS2211, 2-[(2-chloro-5-nitrophenyl)azo]-5-hydroxy-6-methyl-3-[(phosphonooxy)methyl]-4-pyridinecarboxaldehyde disodium salt], with 3240 ± 1850 nM; and `CCOC(=O)c1cc(C#N)c(N2CCC(C(=O)NS(=O)(=O)Cc3ccccc3)CC2)nc1C` [AZD1283, Ethyl 5-cyano-2-methyl-6-[4-[[[(phenylmethyl)sulfonyl]amino]carbonyl]-1-piperidinyl]-3-pyridinecarboxylate], with 2.66 ± 0.6 nM.
Same read-out and setting: then `S=C=Nc1cccc(NC(=S)NCCCCNC(=S)Nc2cccc(N=C=S)c2)c1` [MRS2578], with over 100000 nM.

The record behind these values is publication doi:10.1101/2024.10.10.617599v1 (biorxiv, 2024).
